Test results published in article PMC4890880 (ACS infectious diseases, 2016).
Read-outs that look alike come from different tables or passages of the source.

Key:
[1] = system: Plasmodium cynomolgi exoerythrocytic-stage small (hypnozoites) and large (liver stage schizonts) parasites; test: P. cynomolgi liver assay in primary hepatocytes; conditions: for inhibition at 0.1 µM / inhibition at 1 µM / inhibition at 10 µM: Plasmodium cynomolgi, Hepatocyte
HepG2-A16-CD81EGFP cells = test: cells; conditions: Homo sapiens; for IC50: HepG2, read-out: Tox IC50
[2] = only compound of the set tested with exposure; cited from earlier work
[3] = system: Plasmodium berghei (Pb-Luc) exoerythrocytic-stage parasites; test: microbe, parasite or virus in culture; conditions: for IC50: read-out: PbLuc IC50, dose response, 1/3 dilutions, max conc. 10 or 50 uM, unit inferred
[4] = system: P. berghei expressing GFP (Pb-GFP) in Huh7.5.1 cells; test: Flow cytometry assay of traversal, invasion, EEF frequency and EEF development; format: cell-based, Plasmodium berghei; conditions: 2 hours post infection; 1 μM
[5] = system: P. falciparum 3D7 parasites; test: Asexual erythrocytic-stage SYBR Green I proliferation assay, 1536-well; format: cell-based, Plasmodium falciparum; conditions: Plasmodium falciparum, 3D7, read-out: erythrocytic-stage P. falciparum IC50, values reported in Table S1, Additional File 1
[6] = biological target: QuantiLum Recombinant Luciferase (Photinus pyralis, UniProt P08659); test: Bioluminescence quantification of compound luciferase inhibition
QuantiLum Recombinant Luciferase, sequence (P08659 whole entry): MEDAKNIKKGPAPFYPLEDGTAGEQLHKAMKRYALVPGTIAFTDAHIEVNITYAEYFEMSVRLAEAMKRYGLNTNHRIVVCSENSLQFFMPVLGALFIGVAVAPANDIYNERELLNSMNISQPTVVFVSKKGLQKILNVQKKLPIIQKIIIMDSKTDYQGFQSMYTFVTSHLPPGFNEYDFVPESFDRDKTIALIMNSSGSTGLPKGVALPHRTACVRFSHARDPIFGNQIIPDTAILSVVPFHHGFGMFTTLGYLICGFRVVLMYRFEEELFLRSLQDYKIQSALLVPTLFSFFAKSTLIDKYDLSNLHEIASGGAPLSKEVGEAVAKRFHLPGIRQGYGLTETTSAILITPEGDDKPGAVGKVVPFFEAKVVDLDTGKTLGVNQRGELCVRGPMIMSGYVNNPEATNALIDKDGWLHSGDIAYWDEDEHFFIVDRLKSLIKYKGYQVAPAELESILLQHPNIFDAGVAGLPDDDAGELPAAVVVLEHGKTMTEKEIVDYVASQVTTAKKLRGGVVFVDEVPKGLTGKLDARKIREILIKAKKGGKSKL

[7] = system: Pb-Luc exoerythrocytic-stage parasites in Huh7.5.1 cells; test: Pb-Luc time of action assay (modified 384-well luciferase assay); conditions: Plasmodium berghei
Huh7.5.1 cells = test: Cytotoxicity in Huh7.5.1 cells (Figure S4); conditions: at 10 μM
[8] = read-out: % inhibition normalized to untreated control, Large
[9] = read-out: % inhibition normalized to untreated control, Small
[10] = HepG2, read-out: HepG2 Tox% @ 50 uM rep1
[11] = read-out: Inhibition% @ 50 uM rep1
[12] = read-out: Inhibition% @ 50 uM rep2

Row | Compound | inhibition at 0.1 µM [1, 8] [%] | inhibition at 1 µM [1, 8] [%] | inhibition at 10 µM [1, 8] [%] | inhibition at 0.1 µM [1, 9] [%] | inhibition at 1 µM [1, 9] [%] | inhibition at 10 µM [1, 9] [%] | cytotoxicity at 50 µM (HepG2-A16-CD81EGFP cells; [10]) [%] | IC50 (HepG2-A16-CD81EGFP cells) [nM] | inhibition at 50 µM [3, 11] [%] | inhibition at 50 µM [3, 12] [%] | IC50 [3] [nM] | also measured
1 | Brc1ccc(Nc2nc3ccccc3nc2Nc2ccc(Br)cc2)cc1 [MMV007224] | 23 | 43 | 96 | 30 | 20 | 67 | 100 | 1940 | 103 | 103 | 170 | activity against small or large forms ([1]; at 10 μM, in words): moderate activity; inhibition at 50 µM (HepG2-A16-CD81EGFP cells; HepG2, read-out: Tox max inhibition (%) @ 50 uM): 99%; pharmacokinetic exposure in vivo [2]: any pharmacokinetic exposure in vivo; inhibition at 50 µM ([3]; read-out: PbLuc max inhibition (%) @ 50 uM): 101%
2 | COc1cccc(C=Cc2nc(=O)c3ccccc3o2)c1OC [MMV666693] | 22 | -3 | 15 | 29 | 16 | 30 | -0.938 | > 10000 | 102 | 103 | 9.82 | effect on sporozoite invasion [4]: not affected; effect on sporozoite traversal of hepatocytes [4]: slight effect; IC50 [5]: < 100 nM; IC50 [6]: 5330 nM; Emax ([6]; read-out: LucInhib max inhibition): 89%; IC50 ([7]; Huh-7.5.1, read-out: Pb-Luc IC50, Treatment: 1): 172 nM; IC50 ([7]; Huh-7.5.1, read-out: Pb-Luc IC50, Treatment: 2): 20 nM; IC50 ([7]; Huh-7.5.1, read-out: Pb-Luc IC50, Treatment: 3): 297 nM; IC50 ([7]; Huh-7.5.1, read-out: Pb-Luc IC50, Treatment: 4): 15 nM; IC50 ([7]; Huh-7.5.1, read-out: Pb-Luc IC50, Treatment: 5): 16 nM; IC50 ([7]; Huh-7.5.1, read-out: Pb-Luc IC50, Treatment: 6): 12 nM; cytotoxicity at 50 µM (HepG2-A16-CD81EGFP cells; HepG2, read-out: HepG2 Tox% @ 50 uM rep2): 7%; inhibition at 10 µM (HepG2-A16-CD81EGFP cells; HepG2, read-out: Tox max inhibition (%) @ 10 uM): 123%; cytotoxicity in Huh7.5.1 cells (Huh7.5.1 cells): slight cytotoxicity; inhibition at 10 µM ([3]; read-out: PbLuc max inhibition (%) @ 10 uM): 108%
